According to patent US8933221B2, “Hexahydropyrano[3,4-d][1,3]thiazin-2-amine compounds” (Pfizer Inc., priority 2011, dated 2015):
pIC50: −log10 of the molar value. Counter-ions that a name gives are not always drawn.

Key:
BACE1 enzyme = BACE1 enzyme (Homo sapiens, UniProt P56817); experiment: BACE1 cell-free assay (fluorescence polarization, synthetic APP substrate); format: biochemical; details: for pIC50: values marked b from a single determination; for activity against the BACE1 enzyme: statement in words, used to assign stereochemistry;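 as to all read-outs here: soluble His-tagged BACE1 purified from transfected CHO-K1 cell media, biotinylated Oregon Green-labelled peptide substrate, 3 h at 37 °C, cleavage followed as change in fluorescence polarization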
[1] = test system: sAPPβ levels in H4 human neuroglioma cells over-expressing wild-type human APP695; experiment: sAPPβ whole cell assay (in vitro sAPPb assay, TMB-ELISA); format: cell-based
[2] = geometric mean of 2-6 determinations
[3] = Homo sapiens, 18 hours, geometric mean of 2-6 determinations
[4] = geometric mean of 2-4 determinations
[5] = Homo sapiens, 18 hours, geometric mean of 2-4 determinations, values marked b from a single determination
[6] = Homo sapiens, 18 h, geometric mean of 2-4 determinations, values marked b from a single determination

Chain of BACE1 enzyme (P56817 46-501 limits assumed): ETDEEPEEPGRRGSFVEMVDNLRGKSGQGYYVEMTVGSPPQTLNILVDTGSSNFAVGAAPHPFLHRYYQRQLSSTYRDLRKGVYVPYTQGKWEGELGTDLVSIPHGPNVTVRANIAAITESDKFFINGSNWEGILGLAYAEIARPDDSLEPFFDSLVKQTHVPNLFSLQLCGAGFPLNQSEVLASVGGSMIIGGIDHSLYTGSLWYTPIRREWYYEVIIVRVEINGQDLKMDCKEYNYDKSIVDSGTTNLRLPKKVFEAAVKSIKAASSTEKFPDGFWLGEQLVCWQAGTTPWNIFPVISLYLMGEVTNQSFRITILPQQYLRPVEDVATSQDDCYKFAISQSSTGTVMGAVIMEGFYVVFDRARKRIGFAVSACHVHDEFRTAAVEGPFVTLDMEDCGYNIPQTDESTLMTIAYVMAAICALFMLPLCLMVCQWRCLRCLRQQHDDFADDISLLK

Question: With `NC1=N[C@@]2(c3ccccc3F)COCC[C@H]2CS1` (racemic) [Example 23] as the compound, how does the pIC50 (BACE1 enzyme; [2]) read?
Answer: 5.10

Question: What about the pIC50 ([1]; 18 hours, geometric mean of 2-6 determinations) of the same compound?
Answer: 6.36

Question: `C[C@H]1SC(N)=N[C@@]2(c3ccccc3F)COCC[C@@H]12` (racemic) [Example 27] was tested. Which pIC50 (BACE1 enzyme; [2]) did it give?
Answer: 5.17

Question: What about the pIC50 [1, 3] of the same compound?
Answer: 6.36

Question: How did the pIC50 (BACE1 enzyme; [2]) turn out when `C[C@@H]1SC(N)=N[C@@]2(c3ccccc3F)COCC[C@@H]12` (racemic) [Example 28] was run?
Answer: 4.95

Question: What about the pIC50 [1, 3] of the same compound?
Answer: 6.35

Question: What does the source list for `C[C@H]1SC(N)=N[C@@]2(c3cc(Br)ccc3F)COCC[C@@H]12` (racemic) [Example 30]?
Answer: pIC50 (BACE1 enzyme; [2]): 4.56; pIC50 [1, 3]: 5.78

Question: `C[C@H]1SC(N)=N[C@@]2(c3cc(-c4cncnc4)ccc3F)COCC[C@@H]12` (racemic) [Example 31] was tested. Which pIC50 (BACE1 enzyme; [2]) did it give?
Answer: 5.52

Question: What about the pIC50 [1, 3] of the same compound?
Answer: 6.95

Question: With `NC1=N[C@@]2(c3ccc(F)cc3)COCC[C@H]2CS1` (relative stereo) [Example 11, rel-(4aR,8aS)-8a-(4-Fluorophenyl)-4,4a,5,6,8,8a-hexahydropyrano[3,4-d][1,3]thiazin-2-amine] as the compound, how does the pIC50 (BACE1 enzyme; [4]) read?
Answer: 5.12

Question: And the pIC50 [1, 5]?
Answer: 6.42

Question: Which results are given for `NC1=N[C@@]2(c3ccccc3F)COCC[C@H]2CS1` (relative stereo) [Example 12, rel-(4aR,8aS)-8a-(2-Fluorophenyl)-4,4a,5,6,8,8a-hexahydropyrano[3,4-d][1,3]thiazin-2-amine]?
Answer: pIC50 (BACE1 enzyme; [4]): 5.10; pIC50 [1, 6]: 6.36

Question: With `Cc1ccc([C@]23COCC[C@H]2CSC(N)=N3)c(F)c1` (relative stereo) [Example 13, rel-(4aR,8aS)-8a-(2-Fluoro-4-methylphenyl)-4,4a,5,6,8,8a-hexahydropyrano[3,4-d][1,3]thiazin-2-amine, hydrochloride salt] as the compound, how does the pIC50 (BACE1 enzyme; [4]) read?
Answer: 5.43

Question: What about the pIC50 [1, 5] of the same compound?
Answer: 6.36

Question: `NC1=N[C@@]2(c3ccccc3)COCC[C@H]2CS1` (relative stereo) [Example 14, rel-(4aR,8aS)-8a-Phenyl-4,4a,5,6,8,8a-hexahydropyrano[3,4-d][1,3]thiazin-2-amine] was tested. Which pIC50 (BACE1 enzyme; [4]) did it give?
Answer: 4.98

Question: And the pIC50 [1, 5]?
Answer: 6.32

Question: `NC1=N[C@@]2(c3c(F)cccc3F)COCC[C@H]2CS1` (relative stereo) [Example 16, rel-(4aR,8aS)-8a-(2,6-Difluorophenyl)-4,4a,5,6,8,8a-hexahydropyrano[3,4-d][1,3]thiazin-2-amine] was tested. Which pIC50 [1, 6] did it give?
Answer: 6.30

Question: What does the source list for `NC1=N[C@@]2(c3ccc(Cl)cc3F)COCC[C@H]2CS1` (relative stereo) [Example 17, rel-(4aR,8aS)-8a-(4-chloro-2-Fluorophenyl)-4,4a,5,6,8,8a-hexahydropyrano[3,4-d][1,3]thiazin-2-amine, hydrochloride salt]?
Answer: pIC50 (BACE1 enzyme; [4]): 4.99; pIC50 [1, 5]: 6.11

Question: How did the pIC50 (BACE1 enzyme; [4]) turn out when `NC1=N[C@@]2(c3ccc(O)cc3F)COCC[C@H]2CS1` (relative stereo) [Example 18, rel-4-[(4aR,8aS)-2-Amino-4,4a,5,6-tetrahydropyrano[3,4-d][1,3]thiazin-8a(8H)-yl]-3-fluorophenol, ammonium salt] was run?
Answer: 5.27

Question: And the pIC50 [1, 5]?
Answer: 6.00

Question: Which results are given for `COc1ccccc1[C@]12COCC[C@H]1CSC(N)=N2` (relative stereo) [Example 19, rel-(4aR,8aS)-8a-(2-Methoxyphenyl)-4,4a,5,6,8,8a-hexahydropyrano[3,4-d][1,3]thiazin-2-amine]?
Answer: pIC50 (BACE1 enzyme; [4]): < 4.00; pIC50 [1, 5]: 5.39

Question: How did the “activity against the BACE1 enzyme” value (BACE1 enzyme) turn out when `NC1=N[C@@]2(c3ccc(F)cc3F)COCC[C@H]2CS1` [Example 1, (4aR,8aS)-8a-(2,4-Difluorophenyl)-4,4a,5,6,8,8a-hexahydropyrano[3,4-d][1,3]thiazin-2-amine] was run?
Answer: displays activity against the BACE1 enzyme

Question: What about the pIC50 [1, 5] of the same compound?
Answer: 6.68

Question: How did the pIC50 (BACE1 enzyme; [4]) turn out when `CC(C)OC[C@H]1C[C@H]2CSC(N)=N[C@@]2(c2ccccc2F)CO1` [Example 2, (4aR,6R,8aS)-8a-(2-Fluorophenyl)-6-[(propan-2-yloxy)methyl]-4,4a,5,6,8,8a-hexahydropyrano[3,4-d][1,3]thiazin-2-amine, trifluoroacetate salt] was run?
Answer: 6.40

Question: What about the pIC50 [1, 5] of the same compound?
Answer: 7.14

Question: Which results are given for `NC1=N[C@@]2(c3ccc(F)cc3F)CO[C@@H](CO)C[C@H]2CS1` [Example 3, [(4aR,6R,8aS)-2-Amino-8a-(2,4-difluorophenyl)-4,4a,5,6,8,8a-hexahydropyrano[3,4-d][1,3]thiazin-6-yl]methanol]?
Answer: pIC50 (BACE1 enzyme; [4]): 5.64; pIC50 [1, 5]: 6.36

Question: How did the pIC50 (BACE1 enzyme; [4]) turn out when `NC1=N[C@@]2(c3ccccc3F)CO[C@@H](CF)C[C@H]2CS1` [Example 5, (4aR,6R,8aS)-6-(Fluoromethyl)-8a-(2-fluorophenyl)-4,4a,5,6,8,8a-hexahydropyrano[3,4-d][1,3]thiazin-2-amine] was run?
Answer: 6.08

Question: What about the pIC50 [1, 5] of the same compound?
Answer: 7.08

Question: Which results are given for `NC1=N[C@@]2(c3ccc(F)cc3F)CO[C@@H](COCc3ccccc3)C[C@H]2CS1` [Example 6, (4aR,6R,8aS)-6-[(Benzyloxy)methyl]-8a-(2,4-difluorophenyl)-4,4a,5,6,8,8a-hexahydropyrano[3,4-d][1,3]thiazin-2-amine, trifluoroacetic acid salt]?
Answer: pIC50 (BACE1 enzyme; [4]): 7.49; pIC50 [1, 5]: 7.19

Question: How did the pIC50 (BACE1 enzyme; [4]) turn out when `NC1=N[C@@]2(c3ccccc3F)CO[C@@H](COc3ccccc3)C[C@H]2CS1` [Example 7, (4aR,6R,8aS)-8a-(2-Fluorophenyl)-6-(phenoxymethyl)-4,4a,5,6,8,8a-hexahydropyrano[3,4-d][1,3]thiazin-2-amine] was run?
Answer: 6.08

Question: What about the pIC50 [1, 5] of the same compound?
Answer: 6.97

Question: With `NC1=N[C@@]2(c3ccccc3F)CO[C@@H](COc3ccccn3)C[C@H]2CS1` [Example 8, (4aR,6R,8aS)-8a-(2-Fluorophenyl)-6-[(pyridin-2-yloxy)methyl]-4,4a,5,6,8,8a-hexahydropyrano[3,4-d][1,3]thiazin-2-amine] as the compound, how does the pIC50 (BACE1 enzyme; [4]) read?
Answer: 5.62

Question: And the pIC50 [1, 5]?
Answer: 6.62

Question: With `CCOC[C@H]1C[C@H]2CSC(N)=N[C@@]2(c2ccccc2F)CO1` [Example 9, (4aR,6R,8aS)-6-(Ethoxymethyl)-8a-(2-fluorophenyl)-4,4a,5,6,8,8a-hexahydropyrano[3,4-d][1,3]thiazin-2-amine, trifluoroacetic acid salt] as the compound, how does the pIC50 (BACE1 enzyme; [4]) read?
Answer: 6.04

Question: What about the pIC50 [1, 5] of the same compound?
Answer: 7.10

Question: `NC1=N[C@@]2(c3ccccc3F)CO[C@@H](COC(=O)c3ccccc3)C[C@H]2CS1` [Example 15, [(4aR,6R,8aS)-2-Amino-8a-(2-fluorophenyl)-4,4a,5,6,8,8a-hexahydropyrano[3,4-d][1,3]thiazin-6-yl]methyl benzoate] was tested. Which pIC50 (BACE1 enzyme; [4]) did it give?
Answer: 4.89

Question: What about the pIC50 [1, 5] of the same compound?
Answer: 6.31

Question: With `NC1=N[C@]2(c3ccc(F)cc3F)COCC[C@@H]2CS1` [Example 20, (4aS,8aR)-8a-(2,4-Difluorophenyl)-4,4a,5,6,8,8a-hexahydropyrano[3,4-d][1,3]thiazin-2-amine] as the compound, how does the “activity against the BACE1 enzyme” value (BACE1 enzyme) read?
Answer: does not

Question: What about the pIC50 [1, 5] of the same compound?
Answer: < 4.57

Question: How did the pIC50 (BACE1 enzyme; [4]) turn out when `NC1=N[C@@]2(c3ccccc3F)CO[C@@H](COc3cnccn3)C[C@H]2CS1` [Example 21, (4aR,6R,8aS)-8a-(2-Fluorophenyl)-6-[(pyrazin-2-yloxy)methyl]-4,4a,5,6,8,8a-hexahydropyrano[3,4-d][1,3]thiazin-2-amine, trifluoroacetic acid salt] was run?
Answer: 5.69

Question: And the pIC50 [1, 5]?
Answer: 7.64

Question: `NC1=N[C@@]2(c3ccccc3F)CO[C@@H](COc3ncccn3)C[C@H]2CS1` [Example 22, (4aR,6R,8aS)-8a-(2-Fluorophenyl)-6-[(pyrimidin-2-yloxy)methyl]-4,4a,5,6,8,8a-hexahydropyrano[3,4-d][1,3]thiazin-2-amine, trifluoroacetic acid salt] was tested. Which pIC50 (BACE1 enzyme; [4]) did it give?
Answer: 5.10

Question: And the pIC50 [1, 5]?
Answer: 7.15

Question: With `NC1=N[C@@]2(c3ccccc3F)COCC[C@H]2CS1` [Example 24] as the compound, how does the pIC50 (BACE1 enzyme; [2]) read?
Answer: 5.34

Question: What about the pIC50 ([1]; Homo sapiens, 18 h, geometric mean of 2-6 determinations) of the same compound?
Answer: 6.34

Question: With `NC1=N[C@@]2(c3ccccc3OC(F)(F)F)COCC[C@H]2CS1` [Example 25] as the compound, how does the pIC50 (BACE1 enzyme; [2]) read?
Answer: 4.06

Question: `COC[C@H]1C[C@H]2CSC(N)=N[C@@]2(c2ccccc2F)CO1` [Example 26] was tested. Which pIC50 (BACE1 enzyme; [2]) did it give?
Answer: 5.91

Question: And the pIC50 [1, 3]?
Answer: 6.83

Question: What does the source list for `NC1=N[C@@]2(c3ccccc3F)CO[C@@H](CO)C[C@H]2CS1` [Example 29]?
Answer: pIC50 (BACE1 enzyme; [2]): 5.08; pIC50 [1, 3]: 6.31
